From PMC5078989, “Targeted inhibition of the COP9 signalosome for treatment of cancer” (Nature Communications, 2016)

Test system: panel of cancer cell lines
Test: Cell viability (CellTiter-Glo) dose-response across cancer cell line panel;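 further: after 72 h compound incubation with CellTiter-Glo ATP readout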
Assay type: cell-based, human
Settings: Homo sapiens
Source text: Next, we explored the effect of CSN5 inhibition on the viability of cancer cells. To obtain a comprehensive picture, we generated dose–response curves with a CSN5 inhibitor across more than 500 cancer cell lines in a previously described standardized setting[47] (Supplementary Data 1).
A standardized CellTiter-Glo Assay (Promega #G7570) based on the quantification of ATP was applied according to the manufacturer's protocol to measure the amount of viable cells in culture. In brief, cells were seeded into 384-well plates at optimal density for each cell line. After 4 h, compounds were added at different concentrations in growth medium and incubated for another 72 h in a humidifying chamber at 37 °C and 5% CO2. […] EC50 values were calculated from the plot of percentage of inhibition versus inhibitor concentration using the nonlinear regression analysis software Origin 7.5SR6 (OriginLab Corp.).

SMILES: CC(C)C[C@H](NC(=O)[C@H](Cc1ccccc1)NC(=O)c1cnccn1)B(O)O [Bortezomib]
- EC50 (NALM-6, NALM-6): 8.08 nM
- EC50 (NB1, NB-1): 7.56 nM
- EC50 (NB-4, NB-4): 4.38 nM
- EC50 (NCI-H28, NCI-H28): 10.1 nM
- EC50 (NCI-H82, cell line NCI-H82): 1.25 nM
- EC50 (NCI-H146, cell line NCI-H146): 10.9 nM
- EC50 (NCI-H196, NCI-H196): 27 nM
- EC50 (NCI-H226, cell line NCI-H226): 14.9 nM
- EC50 (NCI-H358, NCI-H358): 10.3 nM
- EC50 (NCI-H441, NCI-H441): 15.5 nM
- EC50 (NCI-H460, cell line NCI-H460): 85.2 nM
- EC50 (NCI-H520, cell line NCI-H520): 7.91 nM
- EC50 (NCI-H524, NCI-H524): 7.72 nM
- EC50 (NCI-H596, NCI-H596): 21 nM
- EC50 (NCI-H647, cell line NCI-H647): 13.7 nM
- EC50 (NCI-H650, NCI-H650): 118 nM
- EC50 (NCI-H661, cell line NCI-H661): 17.3 nM
- EC50 (NCI-H716, NCI-H716): 5.09 nM
- EC50 (NCI-H727, NCI-H727): 27.4 nM
- EC50 (NCI-H810, cell line NCI-H810): 11.8 nM
- EC50 (NCI-H838, NCI-H838): 28.5 nM
- EC50 (NCI-H841, NCI-H841): 18 nM
- EC50 (NCI-H1048, NCI-H1048): 18.6 nM
- EC50 (NCI-H1092, NCI-H1092): 19 nM
- EC50 (NCI-H1184): 7.24 nM
- EC50 (NCI-H1299, cell line NCI-H1299): 18.5 nM
- EC50 (NCI-H1341): 11 nM
- EC50 (NCI-H1355, cell line NCI-H1355): 27.8 nM
- EC50 (NCI-H1437, cell line NCI-H1437): 19.5 nM
- EC50 (NCI-H1563, cell line NCI-H1563): 57.8 nM
- EC50 (NCI-H1568, cell line NCI-H1568): 12.2 nM
- EC50 (NCI-H1573, NCI-H1573): 38.2 nM
- EC50 (NCI-H1581, cell line NCI-H1581): 12.9 nM
- EC50 (NCI-H1623, NCI-H1623): 14 nM
- EC50 (NCI-H1650, cell line NCI-H1650): 3.29 nM
- EC50 (NCI-H1651, NCI-H1651): 8.83 nM
- EC50 (NCI-H1666, cell line NCI-H1666): 7.68 nM
- EC50 (NCI-H1693, NCI-H1693): 5.61 nM
- EC50 (NCI-H1703, cell line NCI-H1703): 9.11 nM
- EC50 (NCI-H1734, NCI-H1734): 9.07 nM
- EC50 (NCI-H1781, cell line NCI-H1781): 12.9 nM
- EC50 (NCI-H1792, cell line NCI-H1792): 51.8 nM
- EC50 (NCI-H1793, cell line NCI-H1793): 55.3 nM
- EC50 (NCI-H1869): 3.35 nM
- EC50 (NCI-H1944, NCI-H1944): 55.2 nM
- EC50 (NCI-H1975, cell line NCI-H1975): 9.64 nM
- EC50 (NCI-H2023, NCI-H2023): 24.1 nM
- EC50 (NCI-H2073, NCI-H2073): 26.5 nM
- EC50 (NCI-H2087, cell line NCI-H2087): 7.21 nM
- EC50 (NCI-H2122, cell line NCI-H2122): 22.5 nM
- EC50 (NCI-H2126, cell line NCI-H2126): 24.4 nM
- EC50 (NCI-H2170, cell line NCI-H2170): 15.6 nM
- EC50 (NCI-H2172, NCI-H2172): 51.5 nM
- EC50 (NCI-H2405, NCI-H2405): 16.8 nM
- EC50 (NCI-H2452, NCI-H2452): 21.7 nM
- EC50 (NCI-H3255, NCI-H3255): 8.64 nM
- EC50 (NOMO-1, NOMO-1): 11.9 nM
- EC50 (NUGC-3, cell line NUGC-3): 11.9 nM
- EC50 (NUGC-4, cell line NUGC-4): 16.2 nM
- EC50 (OAW-42, OAW42): 14.4 nM
- EC50 (OC 316): 8.98 nM
- EC50 (OC-314, OC 314): 8.6 nM
- EC50 (OCI-AML2, OCI-AML2): 8.61 nM
- EC50 (OCI-AML-3, OCI-AML3): 5.45 nM
- EC50 (OCI-AML-5, OCI-AML5): 9.17 nM
- EC50 (OCI-LY19, OCI-LY-19): 11.2 nM
- EC50 (OCI-Ly3, OCI-LY3): 5.53 nM
- EC50 (OCI-Ly10, OCI-LY10): 5.53 nM
- EC50 (OCI-M1, OCI-M1): 2.41 nM
- EC50 (OE19, cell line OE19): 13.4 nM
- EC50 (OE33, cell line OE33): 20.1 nM
- EC50 (ONCO-DG-1, ONCO-DG-1): 11.6 nM
- EC50 (OS-RC-2, OS-RC-2): 18.7 nM
- EC50 (OUMS-23, OUMS-23): 14.1 nM
- EC50 (OV7, OV7): 8.26 nM
- EC50 (OV56, cell line OV56): 13.6 nM
- EC50 (OV-90, OV-90): 15 nM
- EC50 (OVCAR-4, cell line OVCAR-4): 12 nM
- EC50 (OVCAR-8, cell line OVCAR-8): 19.3 nM
